According to PubChem BioAssay (NCI):
Where “and” joins values, the source holds several entries; their conditions need not be identical. Equal entries are not always repeated.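 A five-concentration, 48-hour dose response in 96-well plates underlies each endpoint, interpolated linearly between surrounding concentrations. At the GI50, growth is halved. TGI is the concentration that stops growth completely.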

What was measured:
Experiment in all cases: growth of human tumour cells (NCI), 48 h
COLO 205 colon = tested on: COLO 205 colon
LOX IMVI melanoma = tested on: LOX IMVI melanoma
SNB-19 CNS = tested on: SNB-19 CNS
HCT-116 colon = tested on: HCT-116 colon
SK-MEL-2 melanoma = tested on: SK-MEL-2 melanoma
KM12 colon = tested on: KM12 colon
HL-60(TB) leukemia = tested on: HL-60(TB) leukemia
SK-MEL-5 melanoma = tested on: SK-MEL-5 melanoma
TK-10 renal = tested on: TK-10 renal
DU-145 prostate = tested on: DU-145 prostate

Structure (SMILES)	GI50 (COLO 205 colon)	TGI (COLO 205 colon)	GI50 (LOX IMVI melanoma)	TGI (LOX IMVI melanoma)	GI50 (SNB-19 CNS)	TGI (SNB-19 CNS)	GI50 (HCT-116 colon)	TGI (HCT-116 colon)	GI50 (SK-MEL-2 melanoma)	TGI (SK-MEL-2 melanoma)	GI50 (KM12 colon)	TGI (KM12 colon)	GI50 (HL-60(TB) leukemia)	TGI (HL-60(TB) leukemia)	GI50 (SK-MEL-5 melanoma)	TGI (SK-MEL-5 melanoma)	GI50 (TK-10 renal)	TGI (TK-10 renal)	GI50 (DU-145 prostate)	TGI (DU-145 prostate)
NC(N)=N/N=C/c1cccc(Cl)c1Cl	1.69 µM	3.13 µM	2.49 µM	8.4 µM	3.32 µM	11.8 µM	3.24 µM	10.8 µM	2.22 µM	4.16 µM	2.17 µM	4.91 µM	3.46 µM	8.16 µM	2.33 µM	6.64 µM	11.9 µM	24.4 µM	9.18 µM	21.1 µM
CC1CCC2C(C)C3C(CC4C5CC=C6CC(OC7OC(CO)C(O)C(OC8OC(CO)C(O)C(O)C8O)C7OC7OC(C)C(O)C(O)C7O)CCC6(C)C5CCC43C)N2C1 (configuration not stated)	> 2.5 µg/mL	33 µM and > 2.5 µg/mL	> 2.5 µg/mL	29.7 µM and > 2.5 µg/mL	> 2.5 µg/mL	23.8 µM and > 2.5 µg/mL	> 2.5 µg/mL	24.5 µM and > 2.5 µg/mL	> 2.5 µg/mL	34.8 µM and > 2.5 µg/mL	> 2.5 µg/mL	28.3 µM and > 2.5 µg/mL	–	25.4 µM	> 2.5 µg/mL	33.3 µM and > 2.5 µg/mL	> 2.5 µg/mL	30.6 µM and > 2.5 µg/mL	> 2.5 µg/mL	38.7 µM and > 2.5 µg/mL
COc1cc(C2CC(c3ccc4c(c3)OCO4)=NN2C(C)=O)cc(OC)c1OC (configuration not stated)	0.466 µM	2.6 µM	1.89 µM	> 100 µM	1.91 µM	> 100 µM	0.491 µM	> 100 µM	> 100 µM	> 100 µM	0.422 µM	52.9 µM	0.316 µM	2.92 µM	0.419 µM	8.07 µM	7.59 µM	> 100 µM	1.06 µM	> 21.4 µM
C=C1C(=O)O[C@H]2[C@H]1[C@H](OC(=O)/C(C)=C\C)C[C@]1(CO1)[C@@H]1[C@H](OC(C)=O)C=C(C)[C@]21O	–	19.4 µM	–	29 µM	–	> 100 µM	–	20.3 µM	–	> 58.3 µM	–	41.4 µM	–	12.9 µM	–	37.2 µM	–	23.1 µM	–	29 µM
CC1CCCN(CC(O)CN2CCCc3ccccc32)C1 (configuration not stated)	–	> 100 µM	–	> 100 µM	–	> 100 µM	–	> 100 µM	–	> 100 µM	–	> 100 µM	–	46.6 µM	–	> 100 µM	–	> 100 µM	–	> 100 µM
CC12CCc3ccccc3C1=Nc1ccccc12 (configuration not stated)	–	> 100 µM	–	> 100 µM	–	> 100 µM	–	> 100 µM	–	> 100 µM	–	91.9 µM	–	76.6 µM	–	30.4 µM	–	> 100 µM	–	> 100 µM
CCn1c(-c2nonc2N)nc2c(C#CC(C)(C)O)nc(O[C@@H](CN)c3ccccc3)cc21	0.123 µM	0.646 µM	0.14 µM	1.32 µM	0.236 µM	3.24 µM	0.121 µM	2.61 µM	0.188 µM	0.737 µM	0.0578 µM	1.51 µM	0.0891 µM	0.371 µM	0.413 µM	0.892 µM	0.164 µM	1.66 µM	0.112 µM	4.64 µM
COc1ccc(/C(Cl)=C(\C=O)c2ccc(OC)c(OC)c2)cc1OC	–	> 100 µM	–	> 100 µM	–	> 100 µM	–	> 100 µM	–	> 100 µM	–	> 100 µM	–	> 100 µM	–	> 100 µM	–	> 100 µM	–	> 100 µM
CCN(Cc1nc2cc(C(F)(F)F)ccc2nc1-c1ccccc1)c1ccc(OC)c(OC)c1	31.4 µM	> 100 µM	14.2 µM	27.2 µM	24.6 µM	50.4 µM	11.1 µM	23.2 µM	16.7 µM	34.7 µM	19.9 µM	43.6 µM	4.46 µM	17.6 µM	13.9 µM	28 µM	28 µM	82.3 µM	14.5 µM	31.9 µM
CS(=O)(=O)OCCN(CCOS(C)(=O)=O)c1ccc(C=Nc2ccc3oc(=O)ccc3c2)cc1	–	10.3 µM	–	29.9 µM	–	80.7 µM	–	> 100 µM	–	37.7 µM	–	30.3 µM	–	41.3 µM	–	32.8 µM	–	9.22 µM	–	35.9 µM
O=C(O)c1ccc(S(=O)(=O)N=Nc2c(O)[nH]c3ccccc23)cc1	–	> 100 µM	–	> 100 µM	–	> 100 µM	–	> 100 µM	–	> 100 µM	–	> 100 µM	–	> 100 µM	–	> 100 µM	–	> 100 µM	–	> 100 µM
COc1ccc(NC(=O)c2sc3nc(C)c(C(O)c4ccc(OC)cc4)cc3c2N)cc1 (configuration not stated)	1.57 µM	31.6 µM	1.4 µM	> 50 µM	1.84 µM	> 50 µM	0.983 µM	> 50 µM	1.74 µM	> 50 µM	0.76 µM	> 50 µM	1.23 µM	> 50 µM	0.569 µM	6.82 µM	17.1 µM	> 50 µM	1.65 µM	> 50 µM
O=C(NCCN1CCOCC1)Nc1ccc(-c2cc3c(Nc4ccc(Oc5cccc(C(F)(F)F)c5)c(Cl)c4)ncnc3s2)cc1	1.25 µM	2.95 µM	0.841 µM	1.58 µM	2.41 µM	8.52 µM	1.49 µM	5.05 µM	1.25 µM	2.98 µM	1.02 µM	2.12 µM	1.26 µM	3.37 µM	0.916 µM	1.71 µM	2.78 µM	9.08 µM	2.93 µM	9.26 µM
CCOC(=O)CNC(=O)CCCn1c(=O)c2c3ccccc3n(C)c2n2nnc(-c3ccccc3)c12	> 50 µM	> 50 µM	25.1 µM	> 50 µM	5.83 µM	22.7 µM	9.04 µM	27.3 µM	9.46 µM	29.1 µM	> 50 µM	> 50 µM	20.6 µM	> 50 µM	–	–	8.71 µM	20.9 µM	32 µM	> 50 µM
